{"source": "paper PMC3935314", "about": "(Biochemical pharmacology, 2013)", "target": "GPR55 (Homo sapiens, UniProt Q9Y2T6)", "sequence (Q9Y2T6 whole entry)": "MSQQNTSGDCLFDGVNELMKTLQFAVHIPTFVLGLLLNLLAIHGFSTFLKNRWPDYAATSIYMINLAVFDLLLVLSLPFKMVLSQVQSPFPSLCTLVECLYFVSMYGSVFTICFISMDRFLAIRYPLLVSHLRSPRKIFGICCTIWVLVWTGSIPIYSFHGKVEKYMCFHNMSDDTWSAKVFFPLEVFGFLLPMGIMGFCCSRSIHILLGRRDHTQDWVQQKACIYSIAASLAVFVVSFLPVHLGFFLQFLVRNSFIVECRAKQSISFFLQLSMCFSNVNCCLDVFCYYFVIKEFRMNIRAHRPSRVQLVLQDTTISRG", "experiment": "saturable fluorescent ligand uptake in live cells, reduced by GPR55 siRNA", "type": "cell-based", "data": [{"substance": "Tocrifluor 1117 [T1117]", "values": [{"measurement": "EC50", "result": "~8", "unit": "nM"}]}]}
